# From the supplement of paper PMC10307832
# Experiments:
# Assay in all cases: relative viability (nuclei count vs DMSO), 5 days (fraction); higher = more cells survive
# NCI-H1993 = system: NCI-H1993
# Procedure, shortened: (§1)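 Lung cancer cell lines, seeded in 1536-well plates, were treated the following day by pin tool with a single drug or with five library-drug doses (not always all listed) in √10 steps on top of a fixed anchor-drug dose. Cells were fixed and nuclei stained in one step after 5 days, and nuclei were counted. Relative viability is the nuclei count for treated wells divided by that for vehicle wells, reported as medians of duplicate plates.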
# HARA = system: HARA
# Procedure, shortened: as §1
# COR-L 105 = system: COR-L 105
# Procedure, shortened: as §1
# NCI-H2087 = system: NCI-H2087
# Procedure, shortened: as §1
# LU99A = system: LU99A
# Procedure, shortened: as §1
# HOP-62 = system: HOP-62
# Procedure, shortened: as §1
# NCI-H1395 = system: NCI-H1395
# Procedure, shortened: as §1
# RERF-LC-KJ = system: RERF-LC-KJ
# Procedure, shortened: as §1
# SW 900 = system: SW 900
# Procedure, shortened: as §1
# NCI-H2126 = system: NCI-H2126
# Procedure, shortened: as §1
# EMC-BAC-2 = system: EMC-BAC-2
# Procedure, shortened: as §1
# LC-2-ad = system: LC-2-ad
# Procedure, shortened: as §1
# NCI-H650 = system: NCI-H650
# Procedure, shortened: as §1
# SK-MES-1 = system: SK-MES-1
# Procedure, shortened: as §1
# LOU-NH91 = system: LOU-NH91
# Procedure, shortened: as §1
# 201T = system: 201T
# Procedure, shortened: as §1
# LXF-289 = system: LXF-289
# Procedure, shortened: as §1
# HCC-78 = system: HCC-78
# Procedure, shortened: as §1
# NCI-H2170 = system: NCI-H2170
# Procedure, shortened: as §1
# H3255 = system: H3255
# Procedure, shortened: as §1
# BEN = system: BEN
# Procedure, shortened: as §1
# UMC-11 = system: UMC-11
# Procedure, shortened: as §1
smiles,measurement,setting,value
Cc1csc(=NC2CCCCC2)n1/N=C/c1ccc(O)c(O)c1O [MIM1] + O=C(c1cc(Cc2n[nH]c(=O)c3ccccc23)ccc1F)N1CCN(C(=O)C2CC2)CC1 [Olaparib] (partner 8 µM),relative viability,NCI-H1993; first compound 0.2 µM,1
same,relative viability,NCI-H1993; first compound 0.6325 µM,0.819
same,relative viability,NCI-H1993; first compound 2 µM,0.949
same,relative viability,NCI-H1993; first compound 6.325 µM,0.873
same,relative viability,NCI-H1993; first compound 20 µM,0.432
same,relative viability,HARA; first compound 0.2 µM,0.792
same,relative viability,HARA; first compound 0.6325 µM,1.06
same,relative viability,HARA; first compound 2 µM,0.824
same,relative viability,HARA; first compound 6.325 µM,0.187
same,relative viability,HARA; first compound 20 µM,0.177
same,relative viability,COR-L 105; first compound 0.2 µM,0.694
same,relative viability,COR-L 105; first compound 0.6325 µM,0.673
same,relative viability,COR-L 105; first compound 2 µM,0.63
same,relative viability,COR-L 105; first compound 6.325 µM,0.554
same,relative viability,COR-L 105; first compound 20 µM,0.564
same,relative viability,NCI-H2087; first compound 0.2 µM,0.535
same,relative viability,NCI-H2087; first compound 0.6325 µM,0.701
same,relative viability,NCI-H2087; first compound 2 µM,0.702
same,relative viability,NCI-H2087; first compound 6.325 µM,0.481
same,relative viability,NCI-H2087; first compound 20 µM,0.241
same,relative viability,LU99A; first compound 0.2 µM,0.298
same,relative viability,LU99A; first compound 0.6325 µM,0.246
same,relative viability,LU99A; first compound 2 µM,0.207
same,relative viability,LU99A; first compound 6.325 µM,0.272
same,relative viability,LU99A; first compound 20 µM,0.125
same,relative viability,HOP-62; first compound 0.2 µM,0.424
same,relative viability,HOP-62; first compound 0.6325 µM,0.529
same,relative viability,HOP-62; first compound 2 µM,0.169
same,relative viability,HOP-62; first compound 6.325 µM,0.293
same,relative viability,HOP-62; first compound 20 µM,0.115
same,relative viability,NCI-H1395; first compound 0.2 µM,0.454
same,relative viability,NCI-H1395; first compound 0.6325 µM,0.485
same,relative viability,NCI-H1395; first compound 2 µM,0.414
same,relative viability,NCI-H1395; first compound 6.325 µM,0.436
same,relative viability,NCI-H1395; first compound 20 µM,0.346
same,relative viability,RERF-LC-KJ; first compound 0.2 µM,0.662
same,relative viability,RERF-LC-KJ; first compound 0.6325 µM,0.557
same,relative viability,RERF-LC-KJ; first compound 2 µM,0.197
same,relative viability,RERF-LC-KJ; first compound 6.325 µM,0.221
same,relative viability,RERF-LC-KJ; first compound 20 µM,0.215
same,relative viability,SW 900; first compound 0.2 µM,0.968
same,relative viability,SW 900; first compound 0.6325 µM,0.819
same,relative viability,SW 900; first compound 2 µM,0.852
same,relative viability,SW 900; first compound 6.325 µM,0.209
same,relative viability,SW 900; first compound 20 µM,0.181
same,relative viability,NCI-H2126; first compound 0.2 µM,0.936
same,relative viability,NCI-H2126; first compound 0.6325 µM,0.879
same,relative viability,NCI-H2126; first compound 2 µM,0.916
same,relative viability,NCI-H2126; first compound 6.325 µM,0.849
same,relative viability,NCI-H2126; first compound 20 µM,0.401
same,relative viability,EMC-BAC-2; first compound 0.2 µM,0.494
same,relative viability,EMC-BAC-2; first compound 2 µM,0.433
same,relative viability,EMC-BAC-2; first compound 6.325 µM,0.378
same,relative viability,EMC-BAC-2; first compound 20 µM,0.212
same,relative viability,LC-2-ad; first compound 0.2 µM,0.616
same,relative viability,LC-2-ad; first compound 0.6325 µM,0.683
same,relative viability,LC-2-ad; first compound 2 µM,0.665
same,relative viability,LC-2-ad; first compound 6.325 µM,0.303
same,relative viability,LC-2-ad; first compound 20 µM,0.211
same,relative viability,NCI-H650; first compound 0.2 µM,0.421
same,relative viability,NCI-H650; first compound 0.6325 µM,0.364
same,relative viability,NCI-H650; first compound 2 µM,0.381
same,relative viability,NCI-H650; first compound 6.325 µM,0.357
same,relative viability,NCI-H650; first compound 20 µM,0.127
same,relative viability,SK-MES-1; first compound 0.2 µM,0.743
same,relative viability,SK-MES-1; first compound 0.6325 µM,0.657
same,relative viability,SK-MES-1; first compound 2 µM,0.548
same,relative viability,SK-MES-1; first compound 6.325 µM,0.259
same,relative viability,SK-MES-1; first compound 20 µM,0.108
same,relative viability,LOU-NH91; first compound 0.2 µM,0.92
same,relative viability,LOU-NH91; first compound 0.6325 µM,0.922
same,relative viability,LOU-NH91; first compound 2 µM,0.596
same,relative viability,LOU-NH91; first compound 6.325 µM,0.589
same,relative viability,LOU-NH91; first compound 20 µM,0.369
same,relative viability,201T; first compound 0.2 µM,0.833
same,relative viability,201T; first compound 0.6325 µM,0.863
same,relative viability,201T; first compound 2 µM,0.831
same,relative viability,201T; first compound 6.325 µM,0.415
same,relative viability,201T; first compound 20 µM,0.396
same,relative viability,LXF-289; first compound 0.2 µM,1.04
same,relative viability,LXF-289; first compound 0.6325 µM,0.844
same,relative viability,LXF-289; first compound 2 µM,1.13
same,relative viability,LXF-289; first compound 6.325 µM,0.915
same,relative viability,LXF-289; first compound 20 µM,0.179
same,relative viability,HCC-78; first compound 0.2 µM,0.716
same,relative viability,HCC-78; first compound 2 µM,0.906
same,relative viability,HCC-78; first compound 6.325 µM,0.47
same,relative viability,HCC-78; first compound 20 µM,0.462
same,relative viability,NCI-H2170; first compound 0.2 µM,0.539
same,relative viability,NCI-H2170; first compound 0.6325 µM,0.533
same,relative viability,NCI-H2170; first compound 2 µM,0.528
same,relative viability,NCI-H2170; first compound 6.325 µM,0.269
same,relative viability,NCI-H2170; first compound 20 µM,0.141
same,relative viability,H3255; first compound 0.2 µM,0.535
same,relative viability,H3255; first compound 0.6325 µM,0.541
same,relative viability,H3255; first compound 2 µM,0.518
same,relative viability,H3255; first compound 6.325 µM,0.473
same,relative viability,H3255; first compound 20 µM,0.253
same,relative viability,BEN; first compound 0.2 µM,1.07
same,relative viability,BEN; first compound 0.6325 µM,1.18
same,relative viability,BEN; first compound 2 µM,1.09
same,relative viability,BEN; first compound 6.325 µM,1.01
same,relative viability,BEN; first compound 20 µM,0.239
same,relative viability,UMC-11; first compound 0.2 µM,0.408
same,relative viability,UMC-11; first compound 0.6325 µM,0.4
same,relative viability,UMC-11; first compound 2 µM,0.548
same,relative viability,UMC-11; first compound 6.325 µM,0.237
same,relative viability,UMC-11; first compound 20 µM,0.183
